Test results published in PMC6458069 (Molecular microbiology, 2019).
Changes are numbered by the printed parent chain. Converted amounts (≈) assume the structure as drawn. Like-named read-outs stand apart in the source and are kept apart here.

Experiments:
[1] = target: MtVKOR (Mycobacterium tuberculosis, UniProt I6X5W1); assay: In vitro ubiquinone reduction assay with purified MtVKOR; type: biochemical, M. tuberculosis
[2] = target: human protein disulfide isomerase (PDI) (Homo sapiens, UniProt P07237); assay: PDI insulin reduction assay; type: biochemical
human protein disulfide isomerase (PDI), sequence (P07237 18-508): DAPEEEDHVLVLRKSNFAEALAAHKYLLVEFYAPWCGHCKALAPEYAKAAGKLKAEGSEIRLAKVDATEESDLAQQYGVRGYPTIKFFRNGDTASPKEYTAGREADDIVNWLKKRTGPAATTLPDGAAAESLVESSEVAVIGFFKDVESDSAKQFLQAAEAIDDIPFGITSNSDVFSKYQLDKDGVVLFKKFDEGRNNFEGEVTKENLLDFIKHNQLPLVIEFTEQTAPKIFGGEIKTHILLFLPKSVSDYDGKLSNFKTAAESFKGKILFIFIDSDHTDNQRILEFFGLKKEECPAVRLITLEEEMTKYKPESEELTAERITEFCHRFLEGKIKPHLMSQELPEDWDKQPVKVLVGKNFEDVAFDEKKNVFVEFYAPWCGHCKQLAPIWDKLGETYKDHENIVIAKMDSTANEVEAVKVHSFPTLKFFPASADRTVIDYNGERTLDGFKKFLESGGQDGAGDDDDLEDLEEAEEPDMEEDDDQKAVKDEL

[3] = test system: MtVKOR expressed in E. coli; type: cell-based, M. tuberculosis
[4] = target: T1, PaDsbB1 expressed in E. coli (Pseudomonas aeruginosa, UniProt Q02TM7); type: cell-based, P. aeruginosa; settings: agar plates, HTS control
T1 sequence (Q02TM7 1-169): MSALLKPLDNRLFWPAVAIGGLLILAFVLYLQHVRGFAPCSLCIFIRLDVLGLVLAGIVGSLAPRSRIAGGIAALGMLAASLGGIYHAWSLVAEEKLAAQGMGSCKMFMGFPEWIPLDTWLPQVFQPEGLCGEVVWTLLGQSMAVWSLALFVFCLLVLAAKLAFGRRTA

[5] = test system: M. tuberculosis H37Rv; assay: M. tuberculosis H37Rv growth inhibition; settings: alamar blue assay, ±SD
[6] = test system: M. tuberculosis JR1740 strain; type: cell-based; settings: JR1740 ± ATc
[7] = target: T2, RnVKOR expressed in E. coli (Rattus norvegicus, UniProt Q6TEK4, DEL31-33); assay: Agar β-Gal^dbs assay, E. coli expressing RnVKOR; type: cell-based; settings: FSH250 strain (Figure 4)
T2 sequence (Q6TEK4 with tags, fused parts or gaps DEL31-33): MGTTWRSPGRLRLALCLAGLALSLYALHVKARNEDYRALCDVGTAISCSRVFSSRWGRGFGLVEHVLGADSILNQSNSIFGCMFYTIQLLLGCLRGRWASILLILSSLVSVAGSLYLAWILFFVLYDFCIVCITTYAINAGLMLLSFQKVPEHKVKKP

[8] = test system: elastase (LasB) activity of P. aeruginosa wild type; assay: Elastase in vivo assay, wild type P. aeruginosa; type: cell-based; settings: Pseudomonas aeruginosa, 15 h, read-out: Elastase in vivo assay IC50, WT
[9] = target: T3, PaDsbB1 (ΔdsbB2) (Pseudomonas aeruginosa, UniProt Q02TM7); assay: Elastase in vivo assay, ΔdsbB2 mutant; type: cell-based, P. aeruginosa
T3 sequence (Q02TM7 1-169): T1 sequence (Q02TM7 1-169)

[10] = target: T4, PaDsbB1 (Pseudomonas aeruginosa, UniProt Q02TM7, C154Y); assay: In vitro ubiquinone reduction assay with purified PaDsbB1; type: biochemical, P. aeruginosa
T4 sequence (Q02TM7 1-169 C154Y): T1 sequence (Q02TM7 1-169) with C154Y

[11] = target: T5, PaDsbB2 (Pseudomonas aeruginosa, UniProt Q02EA7, C17A/C53A); assay: In vitro ubiquinone reduction assay with purified PaDsbB2; type: biochemical, P. aeruginosa
T5 sequence (Q02EA7 1-163 C17A/C53A): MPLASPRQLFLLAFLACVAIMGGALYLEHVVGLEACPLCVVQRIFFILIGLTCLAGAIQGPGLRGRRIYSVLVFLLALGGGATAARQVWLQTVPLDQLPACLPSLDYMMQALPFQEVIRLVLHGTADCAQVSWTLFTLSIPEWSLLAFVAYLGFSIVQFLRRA

[12] = target: T6, EcDsbB (Escherichia coli, UniProt P0A6M2, C49V/C8A); assay: In vitro ubiquinone reduction assay with purified EcDsbB; type: biochemical, E. coli
T6 sequence (P0A6M2 1-176 C8A/C49V): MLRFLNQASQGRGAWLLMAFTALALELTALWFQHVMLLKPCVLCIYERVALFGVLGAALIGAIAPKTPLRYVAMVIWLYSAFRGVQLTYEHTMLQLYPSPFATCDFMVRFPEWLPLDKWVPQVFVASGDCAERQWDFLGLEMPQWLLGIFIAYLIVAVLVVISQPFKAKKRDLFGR

[13] = read-out: PDI IC50, insulin reduction assay, Table 2, 95% CI in parenthesis
[14] = read-out: In vitro assay MtVKOR Ki, 1–100 μM Ubiquinone-1, ±SD

SMILES | IC50 [2] | In vivo assay (MIC) [5] | IC50 [2, 13] | MIC in VKOR knockdown (induced) versus non-induced strain (in words) [6] | Inhibition of RnVKOR expressed in E. coli [7] | IC50 [8] | IC50 [9] | IC50 [10] | IC50 [11] | IC50 [12] | Ki [12] | Inhibition of PDI activity (in words) ([2]; insulin reduction assay) | further results
O=C1c2ccccc2C(=O)C1c1ccc(Br)cc1 [Bromindione, reference compound] | > 100 µM | 250 ± 0 µM |  |  |  |  |  |  |  |  |  |  | IC50 [1]: 5 ± 0.73 µM; Ki [1]: 1 ± 0.09 µM; Inhibition of MtVKOR in E. coli screening strain (control) ([3]; agar plates, HTS control): inhibits; Inhibition of PaDsbB1 in E. coli screening strain (control) [4]: but not PaDsbB1
O=C(Nc1ccccc1)c1cc(Cl)ccc1O [MT1] |  | 50.5 ± 0 µM | > 100 µM | lower MICs | inhibited |  |  |  |  |  |  |  | 
OC(CNCc1ccccc1)Cn1c2ccc(Cl)cc2c2cc(Cl)ccc21 (centres unmarked) [MT2] |  | 26.04 ± 9 µM | > 100 µM | lower MICs | inhibited |  |  |  |  |  |  |  | Ki [1, 14]: 4 ± 0.3 µM
c1ccc(Nc2nc3nonc3nc2Nc2ccccc2)cc1 [MT7] |  | 41 ± 0 µM | > 100 µM | lower MICs | inhibited |  |  |  |  |  |  |  | 
Nc1ncn([C@@H]2O[C@H](CO)[C@@H](O)[C@H]2O)c(=O)n1 [MT9] |  | >979 ± 0 µM | > 100 µM |  |  |  |  |  |  |  |  |  | Ki [1, 14]: 2 ± 0.05 µM; MIC against MtVKOR when expressed in E. coli (Figure 3) [3]: 0.44 µM (≈ 0.107 µg/mL)
NC(=O)c1nc(Cl)c(Cl)c(Cl)c1Cl [PA1] | > 100 µM |  |  |  | does not target | 280 µM | 121 µM | 530 ± 60 µM | 600 ± 50 µM | 150 ± 50 µM | 100 ± 30 µM | does not target | 
N#CC(C#N)=NNc1ccccc1 [PA2] | 98.3 µM |  |  |  |  | > 100 µM | > 100 µM | 83 ± 17 µM | 83 ± 13 µM | 37.5 ± 5 µM | 30 ± 7 µM | inhibited | 
Cn1c(=O)c([N+](=O)[O-])c(Cl)c2ccccc21 [PA3] | 98 µM |  |  |  |  | 646 µM | 9 µM | 6 ± 0.6 µM | 3 ± 0.11 µM |  | 13 ± 1.5 µM | inhibited | Ki [10]: 2.8 ± 0.2 µM; Ki [11]: 7.5 ± 0.8 µM
O=c1c(Cl)c(Cl)cnn1Cc1ccccc1Cl [compound 12, reference compound] | > 100 µM |  |  |  |  | 229 µM | 8.6 µM | 4.1 ± 0.6 µM | 6 ± 1 µM | 0.014 ± 0.0001 µM | 0.005 ± 0.001 µM |  | Ki [10]: 3 ± 0.2 µM; Ki [11]: 4 ± 0.2 µM; Inhibition of PaDsbB1 in E. coli screening strain (control) [4]: inhibits
